The subject of data set [1] is poly(ADP-ribose) polymerase or PARP (EC 2.4.2.30). Nature of the data set: Inhibition of the enzyme poly(ADP-ribose) polymerase (ELISA / HTRF assay). The format is biochemical, human or bovine. How it is done: The inhibitory effect of the substituted benzimidazoles I and II can be determined using an enzyme assay disclosed in the literature, with a Ki being determined as gauge of the effect. The benzimidazoles I and II were measured in this way for an inhibitory effect on the enzyme poly(ADP-ribose) polymerase or PARP (EC 2.4.2.30).
Inhibition of the Enzyme poly(ADP-ribose) Polymerase or PARP (EC 2.4.2.30)
A 96-well microtiter plate (FALCON Micro-Test IIIä Flexible Assay Plate, #3912) was coated with histones (SIGMA, H-7755). Histones were for this purpose dissolved in carbonate buffer (0.05 M […]; pH 9.4) in a concentration of 50 μg/ml. The individual wells of the microtiter plate were each incubated with 150 μl of this histone solution at room temperature for at least 2 hours or at 4° C. overnight. The wells are then blocked by adding 150 μl of a 1% strength BSA solution (SIGMA, A-7888) in carbonate buffer at room temperature for 2 hours. This is followed by three washing steps with washing buffer (0.05% […] in 1×PBS; PBS (phosphate buffered saline; Gibco, Order No. 10010): 0.21 g/l KH2PO4, 9 g/l NaCl, 0.726 g/l Na2HPO4.7H2O, pH 7.4). Washing steps were all carried out in a microtiter plate washer (“Columbus” microtiter plate washer, SLT-Labinstruments, Austria).
Required for the enzyme reaction were an enzyme reaction solution and a substrate solution, in each case as a premix. The absolute amount of these solutions depended on the intended number of assay wells.
Composition of the enzyme reaction solution per well:
4 μl of PARP reaction buffer (1 M tris-HCl pH 8.0, 100 mM MgCl2, 10 mM DTT)
20 ng of PARP (human or bovine)
4 μl of activated DNA (1 mg/ml; SIGMA, D-4522)
Composition of the substrate solution per well:
5 μl of PARP reaction buffer (10×)
0.8 μl of NAD solution (10 mM, SIGMA N-1511)
Inhibitors were dissolved in 1× PARP reaction buffer. DMSO, which was occasionally used to dissolve inhibitors in higher concentrations, was no problem up to a final concentration of 2%. For the enzyme reaction, 40μl of the enzyme reaction solution were introduced into each well and incubated with 10 μl of inhibitor solution for 10 minutes. The enzyme reaction was then started by adding 50 μl of substrate solution per well. The reaction was carried out at room temperature for 30 minutes and then stopped by washing three times with washing buffer.
The primary antibodies employed were specific anti-poly(ADP-ribose) antibodies in a dilution of 1:5000. Dilution took place in antibody buffer (1% BSA in PBS; 0.05% Tween20). Incubation time for the primary antibody was one hour at room temperature. […] This was followed by immediate measurement in an ELISA plate reader (EAR340AT “Easy Reader”, SLT-Labinstruments, Austria) (450 nm versus 620 nm).
Various concentrations were used to construct a dose-effect plot to determine the Ki of an inhibitor. […] Arithmetic means are determined using Microsoft© Excel. The IC50 is determined using the Microcal© Origin Software (Vers. 5.0) (“Sigmoidal Fit”). Conversion of the IC50 values calculated in this way into Ki values took place by using “calibration inhibitors”. The “calibration inhibitors” were also measured in each analysis. […]
(In general: In an ELISA, binding on a coated surface is turned into a signal by an enzyme label.)

A short description of data set [2]: Determination of the solubility in water. To be noted: pH 5-6 adjusted with sodium acetate solution. The format is physicochemical. How it is done: Determination of the Solubility in Water
A compound to be measured is dissolved directly in a fixed volume of water, and the resulting solution is adjusted to pH 5-6 with a sodium acetate solution so that the active ingredient concentration to be tested is reached. If the measured substance is not in the form of a water-soluble salt, it was dissolved in the minimum amount of dimethyl sulfoxide and then diluted with water (final dimethyl sulfoxide concentration≦1%), after which the pH was again adjusted.

The conditions of data set [3]: S. Cuzzocrea et al., Br. J. Pharmacol. 1997; cited from earlier work.
Data set [4] has as its target PARP II (Homo sapiens, UniProt Q9UGN5). Nature of the data set: Inhibition of the enzyme PARP II. The format is biochemical. As to conditions: PARP versus PARP II.

The values below come from patent US6696437B1, “Heterocyclically substituted benzimidazoles, the production and application thereof” (Abbott GmbH & Co. KG, priority 1999, dated 2004).

Chain of PARP II (Q9UGN5 whole entry): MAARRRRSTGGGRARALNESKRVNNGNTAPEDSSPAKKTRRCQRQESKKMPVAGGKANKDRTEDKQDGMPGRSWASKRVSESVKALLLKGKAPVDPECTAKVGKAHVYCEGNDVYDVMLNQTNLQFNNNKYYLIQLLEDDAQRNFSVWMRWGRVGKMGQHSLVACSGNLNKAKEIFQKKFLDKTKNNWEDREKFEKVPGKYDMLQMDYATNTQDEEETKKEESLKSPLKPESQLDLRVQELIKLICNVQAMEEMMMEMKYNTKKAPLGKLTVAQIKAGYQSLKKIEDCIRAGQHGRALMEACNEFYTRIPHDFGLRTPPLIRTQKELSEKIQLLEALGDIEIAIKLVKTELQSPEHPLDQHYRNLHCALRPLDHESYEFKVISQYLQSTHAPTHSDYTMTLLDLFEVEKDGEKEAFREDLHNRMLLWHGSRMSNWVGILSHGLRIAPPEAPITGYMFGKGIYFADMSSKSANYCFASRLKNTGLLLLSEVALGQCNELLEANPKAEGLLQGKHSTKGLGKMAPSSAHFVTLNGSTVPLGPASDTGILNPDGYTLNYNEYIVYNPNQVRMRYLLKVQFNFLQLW

For the molecule `CC(C)(C)N1CCN(c2ccc(-c3nc4cccc(C(N)=O)c4[nH]3)cn2)CC1` [Example 36, 2-(2-(4-tert-Butylpiperazin-1-yl)pyridin-5-yl)benzimidazole-4-carboxamide], the “ranking as PARP inhibitor” value in data set [1] is listed as “best PARP inhibitors”.

Regarding `CCCCN1CCN(c2ccc(-c3nc4cccc(C(N)=O)c4[nH]3)cn2)CC1.Cl` [Example 37, 2-(2-(4-n-Butylpiperazin-1-yl)pyridin-5-yl)benzimidazole-4-carboxamide×HCl], the “ranking as PARP inhibitor” value in data set [1] was “best PARP inhibitors”.

For `CCCN1CCN(c2ccc(-c3nc4cccc(C(N)=O)c4[nH]3)cn2)CC1` [Example 16, 2-(6-(4-Propylpiperazin-1-yl)pyridin-3-yl)benzimidazole-4-carboxamide], in data set [1], the “ranking as PARP inhibitor” value is recorded as “best PARP inhibitors”. Consider `CCN(CC)CCN(C)c1cc(-c2nc3c(C(N)=O)cccc3[nH]2)ccn1.CCN(CC)CCN(C)c1cc(-c2nc3c(C(N)=O)cccc3[nH]2)ccn1.O=C(O)/C=C/C(=O)O` [Example 25, 2-(2-((2-(N,N-Diethylamino)eth-1-yl)methylamino)pyridin-4-yl)benzimidazole-4-carboxamide×½ Fumaric Acid], for which the “ranking as PARP inhibitor” value in data set [1] is given as “best PARP inhibitors”. As for `COc1ccc(-c2nc3cccc(C(N)=O)c3[nH]2)cc1` [NU 1076, reference compound], in data set [2], the solubility in water was below 0.01%. Same read-out and setting: with `NC(=O)c1cccc2[nH]c(-c3ccncc3)nc12` [Example 1, 2-Pyridin-4-ylbenzimidazole-4-carboxamide] the figure was above 0.5%. Regarding `CCN(CC)CCN(C)c1ccc(-c2nc3c(C(N)=O)cccc3[nH]2)cn1.Cl.Cl` [Example 15, 2-(6-((2-(N,N-Diethylamino)eth-1-yl)methylamino)pyridin-3-yl)benzimidazole-4-carboxamide×2 HCl], the “ranking as PARP inhibitor” value in data set [1] is “best PARP inhibitors”. In the case of `NC(=O)c1cccc(N)c1` [3-aminobenzamide], the “effect in a model of circulatory failure” value in data set [3] is “protective effects”. On to `NC(=O)c1cccc2nc(-c3ccccc3)[nH]c12` [NU 1070, 2-phenylbenzimidazole-4-carboxamide], for which the “Ki values for PARP compared with PARP II (selectivity)” value in data set [4] is reported as “same order of magnitude”.
